Test results reported in ChEMBL document CHEMBL4411307, “N,N'-diaryl-bishydrazones in a biphenyl platform: Broad spectrum antifungal agents” (Eur J Med Chem, 2019).
Converted amounts (≈) assume the structure as drawn. The source made the active and inactive calls. The rule behind the calls is not given here.

Tests used:
Listeria monocytogenes = experiment: Antibacterial activity against Listeria monocytogenes; type: functional, organism-based
Staphylococcus aureus = experiment: Antibacterial activity against methicillin-resistant Staphylococcus aureus; type: functional, organism-based
Enterococcus = experiment: Antibacterial activity against vancomycin-resistant Enterococcus; type: functional, organism-based
Candida albicans [1] = experiment: Antifungal activity against fluconazole/ITC-resistant Candida albicans ATCC 10231 measured after 48 hrs by CLSI M27-A3 protocol based method; type: functional; conditions: ATCC 10231, 48 h
Candida albicans [2] = experiment: Antifungal activity against fluconazole/ITC-resistant Candida albicans ATCC 64124 measured after 48 hrs by CLSI M27-A3 protocol based method; type: functional; conditions: ATCC 64124, 48 h
Candida albicans [3] = experiment: Antifungal activity against fluconazole/ITC-susceptible Candida albicans ATCC MYA-2876 measured after 48 hrs by CLSI M27-A3 protocol based method; type: functional; conditions: ATCC MYA-2876, 48 h
Candida albicans [4] = experiment: Antifungal activity against fluconazole/ITC-resistant Candida albicans ATCC 90819 measured after 48 hrs by CLSI M27-A3 protocol based method; type: functional; conditions: ATCC 90819, 48 h
Candida albicans [5] = experiment: Antifungal activity against fluconazole/ITC-susceptible Candida albicans ATCC MYA-2310 measured after 48 hrs by CLSI M27-A3 protocol based method; type: functional; conditions: ATCC MYA-2310, 48 h
Candida albicans [6] = experiment: Antifungal activity against fluconazole/ITC-resistant Candida albicans ATCC MYA-1237 measured after 48 hrs by CLSI M27-A3 protocol based method; type: functional; conditions: ATCC MYA-1237, 48 h
Candida albicans [7] = experiment: Antifungal activity against fluconazole/ITC-resistant Candida albicans ATCC MYA-1003 measured after 48 hrs by CLSI M27-A3 protocol based method; type: functional; conditions: ATCC MYA-1003, 48 h
Nakaseomyces glabratus = experiment: Antifungal activity against Candida glabrata ATCC 2001 measured after 48 hrs by CLSI M27-A3 protocol based method; type: functional; conditions: CBS 138, 48 h
Pichia kudriavzevii = experiment: Antifungal activity against Candida krusei ATCC 6258 measured after 48 hrs by CLSI M27-A3 protocol based method; type: functional; conditions: ATCC 6258, 48 h
Candida parapsilosis = experiment: Antifungal activity against Candida parapsilosis ATCC 22019 measured after 48 hrs by CLSI M27-A3 protocol based method; type: functional; conditions: Lodderomyces parapsilosis, ATCC 22019, 48 h
Aspergillus flavus = experiment: Antifungal activity against Aspergillus flavus ATCC MYA-3631 measured after 48 hrs by CLSI M38-A2 protocol based method; type: functional; conditions: ATCC MYA-3631, 48 h
Aspergillus nidulans = experiment: Antifungal activity against Aspergillus nidulans ATCC 38163 measured after 48 hrs by CLSI M38-A2 protocol based method; type: functional; conditions: ATCC 38163, 48 h
Aspergillus terreus = experiment: Antifungal activity against Aspergillus terreus ATCC MYA-3633 measured after 48 hrs by CLSI M38-A2 protocol based method; type: functional; conditions: ATCC MYA-3633, 48 h
A549 = experiment: Cytotoxicity against human A549 cells after 24 hrs by resazurin based assay; type: cell-based; conditions: a549, 24 h
BEAS-2B = experiment: Cytotoxicity against human BEAS2B cells after 24 hrs by resazurin based assay; type: cell-based
[8] = Selectivity index, ratio of CC50 for human A549 cells to MIC for fluconazole/ITC-resistant Candida albicans ATCC 10231; type: toxicity; conditions: read-out: Selectivity Index
[9] = Selectivity index, ratio of CC50 for human A549 cells to MIC for fluconazole/ITC-resistant Candida albicans ATCC 64124; type: toxicity; conditions: read-out: Selectivity Index
[10] = Selectivity index, ratio of CC50 for human A549 cells to MIC for fluconazole/ITC-susceptible Candida albicans ATCC MYA-2876; type: toxicity; conditions: read-out: Selectivity Index
[11] = Selectivity index, ratio of CC50 for human A549 cells to MIC for fluconazole/ITC-resistant Candida albicans ATCC 90819; type: toxicity; conditions: read-out: Selectivity Index
[12] = Selectivity index, ratio of CC50 for human A549 cells to MIC for fluconazole/ITC-susceptible Candida albicans ATCC MYA-2310; type: toxicity; conditions: read-out: Selectivity Index
[13] = Selectivity index, ratio of CC50 for human A549 cells to MIC for fluconazole/ITC-resistant Candida albicans ATCC MYA-1237; type: toxicity; conditions: read-out: Selectivity Index
[14] = Selectivity index, ratio of CC50 for human A549 cells to MIC for fluconazole/ITC-resistant Candida albicans ATCC MYA-1003; type: toxicity; conditions: read-out: Selectivity Index
[15] = Selectivity index, ratio of CC50 for human A549 cells to MIC for Candida glabrata ATCC 2001; type: toxicity; conditions: read-out: Selectivity Index
[16] = Selectivity index, ratio of CC50 for human A549 cells to MIC for Candida krusei ATCC 6258; type: toxicity; conditions: read-out: Selectivity Index
[17] = Selectivity index, ratio of CC50 for human A549 cells to MIC for Candida parapsilosis ATCC 22019; type: toxicity; conditions: read-out: Selectivity Index
[18] = Selectivity index, ratio of CC50 for human A549 cells to MIC for Aspergillus flavus ATCC MYA-3631; type: toxicity; conditions: read-out: Selectivity Index
[19] = Selectivity index, ratio of CC50 for human A549 cells to MIC for Aspergillus nidulans ATCC 38163; type: toxicity; conditions: read-out: Selectivity Index
[20] = Selectivity index, ratio of CC50 for human A549 cells to MIC for Aspergillus terreus ATCC MYA-3633; type: toxicity; conditions: read-out: Selectivity Index
[21] = Hemolytic activity in mouse RBC at […] after 1 hr relative to control; type: ADME, cell-based, Erythrocyte; conditions: red blood cells (erythrocytes), read-out: Activity; also: tested at 0.48 µg/mL
[22] = Hemolytic activity in mouse RBC at […] ug/ml after 1 hr relative to control; type: ADME, cell-based, Erythrocyte; conditions: red blood cells (erythrocytes), read-out: Activity
[23] = Hemolytic activity in mouse RBC at 1.95 ug/ml after 1 hr relative to control; type: ADME, cell-based, Erythrocyte; conditions: red blood cells (erythrocytes), read-out: Activity
[24] = Hemolytic activity in mouse RBC at 3.9 ug/ml after 1 hr relative to control; type: ADME, cell-based, Erythrocyte; conditions: red blood cells (erythrocytes), read-out: Activity
[25] = Hemolytic activity in mouse RBC at 7.8 ug/ml after 1 hr relative to control; type: ADME, cell-based, Erythrocyte; conditions: red blood cells (erythrocytes), read-out: Activity
[26] = Hemolytic activity in mouse RBC at 31.3 ug/ml after 1 hr relative to control; type: ADME, cell-based, Erythrocyte; conditions: red blood cells (erythrocytes), read-out: Activity
[27] = Hemolytic activity in mouse RBC at 62.5 ug/ml after 1 hr relative to control; type: ADME, cell-based, Erythrocyte; conditions: red blood cells (erythrocytes), read-out: Activity
[28] = Selectivity index, ratio of compound concentration showing <20 to <30% hemolysis in mouse RBC to MIC for fluconazole/ITC-resistant Candida albicans ATCC 10231; type: toxicity; conditions: red blood cells (erythrocytes), read-out: Selectivity Index
[29] = Selectivity index, ratio of compound concentration showing <20 to <30% hemolysis in mouse RBC to MIC for fluconazole/ITC-resistant Candida albicans ATCC 64124; type: toxicity; conditions: red blood cells (erythrocytes), read-out: Selectivity Index
[30] = Selectivity index, ratio of compound concentration showing <20 to <30% hemolysis in mouse RBC to MIC for fluconazole/ITC-susceptible Candida albicans ATCC MYA-2876; type: toxicity; conditions: red blood cells (erythrocytes), read-out: Selectivity Index
[31] = Selectivity index, ratio of compound concentration showing <20 to <30% hemolysis in mouse RBC to MIC for fluconazole/ITC-resistant Candida albicans ATCC 90819; type: toxicity; conditions: red blood cells (erythrocytes), read-out: Selectivity Index
[32] = Selectivity index, ratio of compound concentration showing <20 to <30% hemolysis in mouse RBC to MIC for fluconazole/ITC-susceptible Candida albicans ATCC MYA-2310; type: toxicity; conditions: mouse red blood cells (RBC), read-out: Selectivity Index
[33] = Selectivity index, ratio of compound concentration showing <20 to <30% hemolysis in mouse RBC to MIC for fluconazole/ITC-resistant Candida albicans ATCC MYA-1237; type: toxicity; conditions: mouse red blood cells (RBC), read-out: Selectivity Index
[34] = Selectivity index, ratio of compound concentration showing <20 to <30% hemolysis in mouse RBC to MIC for fluconazole/ITC-resistant Candida albicans ATCC MYA-1003; type: toxicity; conditions: mouse red blood cells (RBC), read-out: Selectivity Index
[35] = Selectivity index, ratio of compound concentration showing <20 to <30% hemolysis in mouse RBC to MIC for Candida glabrata ATCC 2001; type: toxicity; conditions: mouse red blood cells (RBC), read-out: Selectivity Index
[36] = Selectivity index, ratio of compound concentration showing <20 to <30% hemolysis in mouse RBC to MIC for Candida krusei ATCC 6258; type: toxicity; conditions: mouse red blood cells (RBC), read-out: Selectivity Index
[37] = Selectivity index, ratio of compound concentration showing <20 to <30% hemolysis in mouse RBC to MIC for Candida parapsilosis ATCC 22019; type: toxicity; conditions: mouse red blood cells (RBC), read-out: Selectivity Index
[38] = Selectivity index, ratio of compound concentration showing <20 to <30% hemolysis in mouse RBC to MIC for Aspergillus flavus ATCC MYA-3631; type: toxicity; conditions: mouse red blood cells (RBC), read-out: Selectivity Index
[39] = Selectivity index, ratio of compound concentration showing <20 to <30% hemolysis in mouse RBC to MIC for Aspergillus nidulans ATCC 38163; type: toxicity; conditions: mouse red blood cells (RBC), read-out: Selectivity Index
[40] = Selectivity index, ratio of compound concentration showing <20 to <30% hemolysis in mouse RBC to MIC for Aspergillus terreus ATCC MYA-3633; type: toxicity; conditions: mouse red blood cells (RBC), read-out: Selectivity Index
[41] = biological target: Voltage-gated inwardly rectifying potassium channel KCNH2 (Homo sapiens, UniProt Q12809); experiment: Inhibition of [3H]-dofetilide binding to human ERG expressed in HEK293 cell membranes measured after 1 hr by liquid scintillation counting method
Voltage-gated inwardly rectifying potassium channel KCNH2, sequence (Q12809 whole entry): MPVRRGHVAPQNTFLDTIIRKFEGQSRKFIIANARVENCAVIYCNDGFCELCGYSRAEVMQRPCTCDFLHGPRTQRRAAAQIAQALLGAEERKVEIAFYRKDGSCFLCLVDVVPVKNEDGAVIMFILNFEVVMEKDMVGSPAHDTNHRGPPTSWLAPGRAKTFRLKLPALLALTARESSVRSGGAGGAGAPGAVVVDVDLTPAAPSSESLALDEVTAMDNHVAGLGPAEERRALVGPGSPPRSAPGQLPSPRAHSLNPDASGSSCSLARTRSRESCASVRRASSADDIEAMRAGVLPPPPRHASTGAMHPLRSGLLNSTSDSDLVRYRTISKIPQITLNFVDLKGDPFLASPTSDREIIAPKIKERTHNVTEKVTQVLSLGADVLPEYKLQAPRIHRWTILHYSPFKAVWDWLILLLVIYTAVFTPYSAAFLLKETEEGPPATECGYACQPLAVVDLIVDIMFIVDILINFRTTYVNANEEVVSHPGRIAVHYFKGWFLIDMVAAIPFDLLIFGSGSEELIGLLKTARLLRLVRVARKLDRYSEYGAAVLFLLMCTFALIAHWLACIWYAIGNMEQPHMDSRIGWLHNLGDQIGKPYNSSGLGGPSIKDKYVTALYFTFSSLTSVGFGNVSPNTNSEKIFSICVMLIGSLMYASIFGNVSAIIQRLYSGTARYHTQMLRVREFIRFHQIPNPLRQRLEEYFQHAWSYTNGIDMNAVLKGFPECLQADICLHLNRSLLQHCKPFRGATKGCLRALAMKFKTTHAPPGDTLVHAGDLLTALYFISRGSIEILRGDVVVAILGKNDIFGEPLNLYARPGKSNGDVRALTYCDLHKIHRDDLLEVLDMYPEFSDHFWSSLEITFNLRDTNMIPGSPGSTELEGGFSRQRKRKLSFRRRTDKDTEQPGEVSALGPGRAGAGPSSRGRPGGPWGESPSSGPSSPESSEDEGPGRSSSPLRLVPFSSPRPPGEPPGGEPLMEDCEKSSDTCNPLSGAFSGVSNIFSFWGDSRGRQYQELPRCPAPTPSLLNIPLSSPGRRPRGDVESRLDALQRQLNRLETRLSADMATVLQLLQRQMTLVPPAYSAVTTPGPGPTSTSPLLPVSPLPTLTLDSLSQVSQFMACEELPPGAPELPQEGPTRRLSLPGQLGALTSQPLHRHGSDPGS

SMILES: Fc1ccc(N/N=C/c2ccc(-c3cccc(/C=N/Nc4ccc(F)cc4)c3)cc2)cc1
- Activity (Listeria monocytogenes): inactive
- Activity (Staphylococcus aureus): inactive
- Activity (Enterococcus): inactive
- MIC (Candida albicans [1]): 1.95 to 3.9 µg/mL (≈ 4.57 to 9.14 µM)
- MIC (Candida albicans [2]): 15.6 µg/mL (≈ 36.6 µM)
- MIC (Candida albicans [3]): 7.8 µg/mL (≈ 18.3 µM)
- MIC (Candida albicans [4]): > 31.3 µg/mL
- MIC (Candida albicans [5]): 7.8 µg/mL (≈ 18.3 µM)
- MIC (Candida albicans [6]): 15.6 µg/mL (≈ 36.6 µM)
- MIC (Candida albicans [7]): 3.9 µg/mL (≈ 9.14 µM)
- MIC (Nakaseomyces glabratus): > 31.3 µg/mL
- MIC (Pichia kudriavzevii): > 31.3 µg/mL
- MIC (Candida parapsilosis): 31.3 µg/mL (≈ 73.4 µM)
- MIC (Aspergillus flavus): 15.6 µg/mL (≈ 36.6 µM)
- MIC (Aspergillus nidulans): 3.9 µg/mL (≈ 9.14 µM)
- MIC (Aspergillus terreus): > 31.3 µg/mL
- CC50 (A549): > 31 µg/mL
- CC50 (BEAS-2B): > 31 µg/mL
- selectivity ratio [8]: 16
- selectivity ratio [9]: 2
- selectivity ratio [10]: 4
- selectivity ratio [11]: 1
- selectivity ratio [12]: 4
- selectivity ratio [13]: 2
- selectivity ratio [14]: 8
- selectivity ratio [15]: 1
- selectivity ratio [16]: 1
- selectivity ratio [17]: 1
- selectivity ratio [18]: 2
- selectivity ratio [19]: 8
- selectivity ratio [20]: 1
- hemolysis at 1 h, […] [21]: 0.1%
- hemolysis at 1 h, 15.6 ug/ml ([22]; at 15.6 µg/mL): 9.9%
- hemolysis at 1 h, 0.975 ug/ml [22]: 0%
- hemolysis at 1 h, 1.95 ug/ml [23]: 6%
- hemolysis at 1 h, 3.9 ug/ml [24]: 4.3%
- hemolysis at 1 h, 7.8 ug/ml [25]: 9.5%
- hemolysis at 1 h, 31.3 ug/ml [26]: 14.4%
- hemolysis at 1 h, 62.5 ug/ml [27]: 26.1%
- selectivity ratio [28]: 1 to 32
- selectivity ratio [29]: 1 to 32
- selectivity ratio [30]: 1 to 32
- selectivity ratio [31]: 1 to 32
- selectivity ratio [32]: 1 to 32
- selectivity ratio [33]: 1 to 32
- selectivity ratio [34]: 1 to 32
- selectivity ratio [35]: 1 to 32
- selectivity ratio [36]: 1 to 32
- selectivity ratio [37]: 1 to 32
- selectivity ratio [38]: 1 to 32
- selectivity ratio [39]: 1 to 32
- selectivity ratio [40]: 1 to 32
- IC50 [41]: > 30 µM
